Assay results reported in patent US20210386367A1, “DEVICES AND SYSTEMS FOR GASTROINTESTINAL MICROBIOME DETECTION AND MANIPULATION” (Progenity, Inc., priority 2018, published 2021).
In brackets after ≈: the same amount, converted by molar mass. Read-outs that look alike come from different tables or passages of the source.

Legend:
S. agalactiae ATCC 13813 = assay: Broth microdilution MIC (time-kill study); type: cell-based, Streptococcus agalactiae
Prevotella spp. = assay: Agar dilution MIC, 30 clinical isolates; type: cell-based
[1] = tested on: Veillonella spp. clinical isolates; assay: MIC distribution against clinical isolates; type: cell-based
Source text: (n=19 V. parvula, n=9 Veillonella spp., n=1 Veillonella dispr., n=1 V. atypica) clinical isolates (μg/mL).
As used herein, “minimum inhibitory concentration” or “MIC” refers to the lowest concentration of an antimicrobial agent, for example, an antimicrobial agent as described herein, required to inhibit the growth of an organism. […] “MIC90” represents the MIC value at which ≥90% of the strains within a test population are inhibited; the 90th percentile.
Many susceptibility testing methods are known in the art and can be used as described herein (see, e.g., Jorgensen and Ferraro (2009) Clinical Infectious Diseases 49:1749-1755; and Maurer et al. (2017) Infectious Disease Reports 9:6839; the entire contents of each of the foregoing are incorporated herein by reference). For example, antimicrobial susceptibility can be determined using conventional culture based methods such as the broth or agar dilution test. In these dilution tests, the bacterial isolate of interest is inoculated onto different media that include serial dilutions of an antimicrobial agent, and incubated under appropriate conditions (e.g., overnight at 37° C.) to allow for growth to occur. Following the incubation period, the media is examined to determine bacterial growth. The lowest concentration of antibiotic that prevents growth represents the minimal inhibitory concentration (MIC). Broth dilution tests can be miniaturized and mechanized allowing for reproducibility and high throughput.

S. pyogenes ATCC 49399 [2] = assay: Time-kill assay; type: cell-based, Streptococcus pyogenes; settings: 2×, 4×, 8× MIC; 2, 6, 24 hr
S. pyogenes ATCC 49399 [3] = assay: Broth microdilution MIC (time-kill study); type: cell-based, Streptococcus pyogenes
Bacteroides non fragilis = assay: Agar dilution MIC, 29 clinical isolates; type: cell-based, Bacteroides spp.
S. pneumoniae ATCC 49619 = assay: Time-kill assay; type: cell-based, Streptococcus pneumoniae; settings: 2×, 4×, 8× MIC; 2, 6, 24 hr
[4] = tested on: three isolates each of E. coli, Streptococcus spp. and Bacteroides spp.; assay: Time-kill assay, overall summary; type: cell-based
Method: MIC values were determined by broth microdilution in accordance with guidelines from the Clinical and Laboratory Standards Institute (CLSI; (1) “Methods for Dilution Antimicrobial Susceptibility Tests for Bacteria That Grow Aerobically; Approved Standard; 11th ed.,” CLSI standard M07, 2018; (2) “Performance Standards for Antimicrobial Susceptibility Testing; 28th ed.,” CLSI supplement M100, 2018).
During the time-kill study, the test flasks were sampled at 2, 6, and 24 hr for determination of viable counts using the track dilution method as described above. Bacteroides was also sampled at 48 hr. All E. coli plates were incubated for 20-24 hr at 35° C., Streptococci for 20-24 hr at 35° C. in a CO2 incubator, and Bacteroides for approximately 48 hr at 35° C. in the anaerobe chamber. Colonies were counted manually, and the CFU/mL was determined from the average count of the duplicate plates, followed by the calculation of the log10 CFU/mL. The limit of detection for the assay was 50 CFU/mL.

[5] = tested on: Streptococcus spp. spontaneous mutants; assay: organism not typed; type: cell-based
Outline: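 Spontaneous mutants from drug selection plates were tested by CLSI broth microdilution in MHB II with two-fold serial drug dilutions. Inoculum was about 5×10^5 CFU/mL, incubated aerobically at 35° C. for 18-20 hr. MIC was the lowest concentration inhibiting visible growth.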

[6] = 30 Prevotella spp. clinical isolates
[7] = MIC 0.5 μg/mL, 30 Veillonella spp. isolates
[8] = MIC 1 μg/mL, 30 Veillonella spp. isolates
[9] = MIC 2 μg/mL, 30 Veillonella spp. isolates
[10] = MIC 4 μg/mL, 30 Veillonella spp. isolates
[11] = MIC 8 μg/mL, 30 Veillonella spp. isolates
[12] = MIC 16 μg/mL, 30 Veillonella spp. isolates
[13] = MIC 32 μg/mL, 30 Veillonella spp. isolates
[14] = 29 Bacteroides non-fragilis clinical isolates

## CO/N=C(\C(=O)N[C@@H]1C(=O)N2C(C(=O)O)=C(CSc3nc(=O)c(=O)[nH]n3C)CS[C@H]12)c1csc(N)n1 [ceftriaxone]
S. agalactiae ATCC 13813; S. agalacttae ATCC 13813 (so in the source)
  MIC: 0.015 µg/mL (≈ 0.027 µM)
S. agalactiae ATCC 13813; Streptococcus agalactiae, ATCC13813, broth microdilution, read-out: MIC
  MIC: 0.015 µg/mL (≈ 0.027 µM)
Prevotella spp.
  MIC range: 0.12 to 128 µg/mL
  isolates resistant: 33%
  isolates with intermediate resistance: 20%
Prevotella spp.; [6]
  % I: 20%
  % R: 33%
  % S: 47%
  MIC50: 32 µg/mL (≈ 57.7 µM)
  MIC90: 64 µg/mL (≈ 115 µM)
  MIC range: 0.12 to 128 µg/mL
Prevotella spp.; Prevotella, read-out: MIC50
  MIC50: 32 µg/mL (≈ 57.7 µM)
Prevotella spp.; Prevotella, read-out: MIC90
  MIC90: 64 µg/mL (≈ 115 µM)
Prevotella spp.; modal MIC, 30 Prevotella spp. clinical isolates
  Mode: 64 µg/mL
[1]
  Cumulative percentage of isolates inhibited at MIC: 100.0%
  Number of test isolates at MIC: 1
[1]; [7]
  Cumulative percentage of isolates inhibited at MIC: 10.0%
  Number of test isolates at MIC: 3
[1]; [8]
  Cumulative percentage of isolates inhibited at MIC: 23.3%
  Number of test isolates at MIC: 4
[1]; [9]
  Cumulative percentage of isolates inhibited at MIC: 26.7%
  Number of test isolates at MIC: 1
[1]; [10]
  Cumulative percentage of isolates inhibited at MIC: 30.0%
  Number of test isolates at MIC: 1
[1]; [11]
  Cumulative percentage of isolates inhibited at MIC: 40.0%
  Number of test isolates at MIC: 3
[1]; [12]
  Cumulative percentage of isolates inhibited at MIC: 86.7%
  Number of test isolates at MIC: 14
[1]; [13]
  Cumulative percentage of isolates inhibited at MIC: 96.7%
  Number of test isolates at MIC: 3
S. pyogenes ATCC 49399 [2]
  time-kill kinetics outcome (bactericidal = ≥3 log reduction in CFU per mL): bactericidal effect at 4× and 8×MIC at 24 hr
S. pyogenes ATCC 49399 [3]; S. pyogenes ATCC 49399
  MIC: 0.015 µg/mL (≈ 0.027 µM)
S. pyogenes ATCC 49399 [3]; Streptococcus pyogenes, ATCC49399, broth microdilution, read-out: MIC
  MIC: 0.015 µg/mL (≈ 0.027 µM)
Bacteroides non fragilis
  isolates resistant: 72%
  isolates with intermediate resistance: 3%
Bacteroides non fragilis; [14]
  % I: 3%
  % R: 72%
  % S: 24%
  MIC50: >128 µg/mL
  MIC90: >128 µg/mL
  MIC range: 1 to 128 µg/mL
Bacteroides non fragilis; Bacteroides, read-out: MIC50
  MIC50: > 128 µg/mL
Bacteroides non fragilis; Bacteroides, read-out: MIC90
  MIC90: > 128 µg/mL
Bacteroides non fragilis; modal MIC, 29 Bacteroides non-fragilis clinical isolates
  Mode: >128 µg/mL
S. pneumoniae ATCC 49619
  time-kill kinetics outcome (bactericidal = ≥3 log reduction in CFU per mL): all three drug concentrations tested demonstrated bactericidal effects at 24 hr
[4]
  overall time-kill outcome: bactericidal activity
[5]; S. pneumoniae ATCC 49619, selected on rifaximin 4X MIC, Colony A
  MIC: 0.03 µg/mL (≈ 0.0541 µM)
[5]; S. pneumoniae ATCC 49619, selected on rifaximin 4X MIC, Colony B
  MIC: 0.06 µg/mL (≈ 0.108 µM)
[5]; S. pneumoniae ATCC 49619, selected on rifaximin 8X MIC, Colony A
  MIC: 0.03 µg/mL (≈ 0.0541 µM)
[5]; S. pneumoniae ATCC 49619, selected on rifaximin 8X MIC, Colony B
  MIC: 0.03 µg/mL (≈ 0.0541 µM)
[5]; S. pneumoniae ATCC 49619 Parent
  MIC: 0.06 µg/mL (≈ 0.108 µM)
[5]; S. pyogenes ATCC 49399, selected on rifaximin 4X MIC, Colony A
  MIC: 0.008 µg/mL (≈ 0.0144 µM)
[5]; S. pyogenes ATCC 49399, selected on rifaximin 4X MIC, Colony B
  MIC: 0.015 µg/mL (≈ 0.027 µM)
[5]; S. pyogenes ATCC 49399, selected on rifaximin 8X MIC, Colony A
  MIC: 0.015 µg/mL (≈ 0.027 µM)
[5]; S. pyogenes ATCC 49399, selected on rifaximin 8X MIC, Colony B
  MIC: 0.008 µg/mL (≈ 0.0144 µM)
[5]; S. pyogenes ATCC 49399 Parent
  MIC: 0.015 µg/mL (≈ 0.027 µM)
[5]; Streptococcus, ATCC13813, S. agaloctiae ATCC 13813, selected on rifaximin 4X MIC, Colony A
  MIC: 0.015 µg/mL (≈ 0.027 µM)
[5]; Streptococcus, ATCC13813, S. agaloctiae ATCC 13813, selected on rifaximin 4X MIC, Colony B
  MIC: 0.015 µg/mL (≈ 0.027 µM)
[5]; Streptococcus, ATCC13813, S. agaloctiae ATCC 13813, selected on rifaximin 8X MIC, Colony A
  MIC: 0.015 µg/mL (≈ 0.027 µM)
[5]; Streptococcus, ATCC13813, S. agaloctiae ATCC 13813, selected on rifaximin 8X MIC, Colony B
  MIC: 0.06 µg/mL (≈ 0.108 µM)
[5]; Streptococcus, ATCC13813, S. agaloctiae ATCC 13813 Parent
  MIC: 0.015 µg/mL (≈ 0.027 µM)
